# Experiments:
# [1] = target: T1, HU protein of S. pyogenes (Streptococcus pyogenes, UniProt Q5XB35); assay: WaterLOGSY NMR; assay type: binding; details: 10 µM HU, 400 µM compound; 50 mM NaCl, 20 mM Tris, pH 7.4, 5% DMSO, 10% D2O, 298 K
# T1 construct: gene hup
# [2] = target: T2, SaHU (Staphylococcus aureus, UniProt Q99U17); assay: microscale thermophoresis; assay type: binding
# T2 sequence (Q99U17 1-90): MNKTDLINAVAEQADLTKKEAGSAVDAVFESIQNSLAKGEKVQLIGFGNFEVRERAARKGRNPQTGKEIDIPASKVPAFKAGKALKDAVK
# [3] = target: T3, HU protein of M. tuberculosis (Mycobacterium tuberculosis, UniProt P9WMK7)
# T3 construct: gene hupB
# T3 sequence (P9WMK7 2-216): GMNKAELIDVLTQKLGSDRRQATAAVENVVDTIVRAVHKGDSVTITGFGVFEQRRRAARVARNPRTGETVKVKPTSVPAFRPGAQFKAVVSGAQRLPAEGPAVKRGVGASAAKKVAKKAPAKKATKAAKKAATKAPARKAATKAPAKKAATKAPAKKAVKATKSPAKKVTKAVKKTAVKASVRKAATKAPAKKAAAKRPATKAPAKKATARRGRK
# T1 sequence (Q5XB35 whole entry): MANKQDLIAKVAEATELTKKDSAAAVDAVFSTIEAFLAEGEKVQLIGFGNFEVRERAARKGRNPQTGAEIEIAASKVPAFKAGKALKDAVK
SMILES,WaterLOGSY NMR [1],Kd [2],WaterLOGSY NMR [3]
O=C(/C=C/c1cccc(S(=O)(=O)Nc2ccccc2)c1)NO [Belinostat],"including A. baumannii, S. pneumoniae, B. subtilis, M. tuberculosis and S. pyogenes",4.24 ± 0.24 µM,"including A. baumannii, S. pneumoniae, B. subtilis, M. tuberculosis and S. pyogenes"
O=C(/C=C/c1ccccc1)NO [CHA],,5.77 ± 0.93 µM,

# Reference: article PMC12955902 (Advanced Science, 2025)
